Laboratory results: patent US7547676B2, “Antagonist peptides to the C5A chemotactic function of vitamin D binding protein” (The Research Foundation of State University of New York, priority 2004, dated 2009)

What was measured:
U937-C5aR cells [1] = assay: C5a-induced intracellular calcium mobilization in U937-C5aR cells; type: cell-based, human; settings: FIG. 11B, 12; 0.5 μM DBP peptide, 50 nM DBP, 0.1 nM C5a
Method: FIG. 11A and FIG. 11B show the effect of DBP on C5a-induced intracellular calcium mobilization in U937-C5aR cells. U937-C5aR cells (10^7 cells/ml) were resuspended in HBSS-1% BSA containing 2 μM Fluo-3 AM and incubated at 37° C. for 40 minutes. Cells incubated without the dye were used as a control to measure autofluorescence (Fmin). Following the dye uptake, cells were washed twice then suspended at 5×10^6 cells/ml in HBSS containing 1% BSA. For the pretreatment experiments, cells were incubated for 30 min at 22° C. with 50 nM DBP or 0.5 μM DBP peptide 1 (p1). For each measurement, 400 μl of cell suspension was added to a cuvette and stimulated with the indicated concentration of C5a (FIG. 11A) or 0.1 nM C5a (FIG. 11B). Fluorescence was then measured immediately using a Perkin-Elmer LS-5 fluorometer at 505 nm excitation, 526 nm emission for Fluo-3 AM. Fmax was measured by treating labeled cells with 60 μM digitonin. Intracellular free calcium concentrations were calculated using the following formula: (Ca^2+)=Kd (F−Fmin)/(Fmax−F), where Kd=325 nM for Fluo-3 according to manufacturer (Molecular Probes). Data are presented as mean±SEM (n=4-6) of the increase in intracellular calcium concentration.
U937-C5aR cells (10^7 cells/ml) were resuspended in HBSS-1% BSA containing 2 μM Fluo-3 AM and incubated at 37° C. for 40 minutes. Cells incubated without the dye were used as a control to measure autofluorescence (Fmin). Following the dye uptake, cells were washed twice then suspended at 5×10^6 cells/ml in HBSS containing 1% BSA. Cells were incubated for 30 min at 22° C. with either 50 nM DBP or 0.5 μM DBP peptide. For each measurement, 400 μl of cell suspension was added to a cuvette and stimulated with 0.1 nM purified C5a. Fluorescence was then measured immediately using a Perkin-Elmer LS-5 fluorometer at 505 nm excitation, 526 nm emission for Fluo-3 AM. Fmax was measured by treating labeled cells with 60 μM digitonin. Intracellular free calcium concentrations were calculated using the following formula: (Ca2+)=Kd (F−Fmin)/(Fmax−F), where Kd=325 nM for Fluo-3 according to manufacturer (Molecular Probes)

U937-C5aR cells [2] = assay: Chemotaxis assay, U937-C5aR cells; type: cell-based, human; settings: Example 6
Method: Neutrophils (4×10^6/ml) or U937-C5aR cells (6×10^6/ml) in chemotaxis buffer were treated for 15 min at 22° C. with 20 μg/ml of anti-CD36, anti-CD47 or anti-gC1qR. Cells were then allowed to respond to either 2.5% complement-activated serum (ZAS) or 1 nM purified C5a for 120 min (FIG. 14A. U937-C5aR cells) or 25 min (Panel B. neutrophils) at 37° C. Numbers represent mean±SEM, n=4.
U937 cells were originally obtained from the American Type Culture Collection and transfected with either the human C5a receptor or the empty plasmid vector as detailed previously (16). U937 cells were cultured at 37° C., 5% CO2 in RPMI 1640 containing 10% FBS (HyClone) and […] active G418 (Invitrogen Life Technologies) and maintained at a density between 2×10^5 and 1.5×10^6/ml.
Serum and citrated plasma (1 ml each) were incubated for 1 h at 37° C. with 10 mg of zymosan. Particulate matter was removed by centrifugation (15,000× g) for 5 min at 4° C. using a microfuge. Samples were then aliquoted and frozen at −20° C.
Cell movement was quantitated using a 48-well microchemotaxis chamber (NeuroProbe) and 5.0-μm pore size cellulose nitrate filters (purchased from NeuroProbe) as previously described (13). Cell movement was quantitated microscopically by measuring the distance in micrometers that the leading front of cells had migrated into the filter according to the method described by Zigmond and Hirsch (17). In each experiment, five fields per duplicate filter were measured at ×400 magnification. The value of the background controls for random cell movement (cells responding to buffer) has been subtracted in all cases so that the data are presented as net movement in micrometers.

neutrophils [3] = assay: Neutrophil chemotaxis assay, C5a co-chemotactic activity of DBP; type: cell-based, human
From the text: Isolation of human neutrophils Neutrophils, serum, and plasma were isolated from the venous blood of healthy, medication-free, paid volunteers who gave informed consent. The Institutional Review Board of Stony Brook University approved this procedure. These procedures have been described in detail previously (Kew et al., 1995a).
Neutrophil chemotaxis assay Cell movement was quantitated using a 48 well microchemotaxis chamber (Neuroprobe, Cabin John, Md.) and 5.0 μm pore size cellulose nitrate filters (purchased from Neuroprobe) as previously described (Kew et al., 1995a). Cell suspensions and chemotactic factors were prepared and/or diluted in the chemotaxis assay buffer (Hank's balanced salt solution supplemented with 10 mM HEPES (pH 7.4) and 1% bovine serum albumin). Cell movement was quantitated microscopically by measuring the distance in microns (μm) that the leading front of cells had migrated into the filter according to the method described by Zigmond and Hirsch (1973). In each experiment, five fields per duplicate filter were measured at 400× magnification.

neutrophils [4] = assay: Quantitative binding of radioiodinated DBP to neutrophils; design: species or system human; settings: DBP saturated with the ligand; 100 nM 125I-DBP, 37° C. 60 min
Method: Quantitative binding of radioiodinated DBP to neutrophils Purified DBP (200-400 μg) was iodinated using Na-^125I (Dupont-NEN, Wilmington, Del.) as previously described (DiMartino and Kew, 1999). Neutrophils (10^7 cells/sample) were incubated with 100 nM ^125I-DBP in Hank's balanced salt solution (HBSS) containing 0.1% bovine serum albumin (BSA) (assay buffer) in a total volume of 100 μl. Samples were incubated at 37° C. for 60 min after which cells were placed on ice and then washed twice with ice-cold assay buffer (1.0 ml each) and centrifuged for 7 min at 200× g at 2° C. The cell pellets were then counted for total radioactivity in a gamma counter. All samples were assayed in triplicate or quadruplicate.

[5] = test system: Alkaline phosphatase activity on the plasma membrane of viable neutrophils; assay: Neutrophil alkaline phosphatase assay (DiFMUP); type: cell-based, human; settings: 5×10^6 cells pretreated with 10 nM 1,25(OH)2D3 or 10 μM SOV; untreated 11,107±1335 units
Method: Neutrophil alkaline phosphatase assay Alkaline phosphatase activity on the plasma membrane of viable neutrophils was measured using the fluorescent substrate 6,8-difluoro-4-methylumbelliferyl phosphate (DiFMUP) and the EnzChek Phosphatase Assay Kit (Molecular Probes, Eugene, Oreg.). Neutrophils (5×10^6 cells) were suspended in 50 μl of 0.1M sodium acetate (pH 5.0) and were immediately added to microtiter plates containing 50 μl of 0.2mM DiFMUP substrate and incubated for 5 min at 22° C. in the dark. A standard curve was generated using known amounts of the fluorescent compound 6,8-difluoro-7-hydroxy-4-methylcoumarin. Fluorescence was measured at 358 nm excitation and 455 nm emission using a SpectraMax M2 microtiter plate reader (Molecular Devices, Sunnydale, Calif.).

[6] = test system: differentiated HL-60 cells; assay: Chemotaxis assay, differentiated HL-60 cells responding to C5a, C5a plus DBP or ZAS; type: cell-based, Human; settings: differentiated HL-60 cells; 100 pM C5a (FIG. 1: 25-200 pM) plus 50 nM of indicated DBP, 60 min at 37° C
Method: Cells (6×10^6/ml) were resuspended in chemotaxis buffer and treated either with chemotaxis buffer (control), 1 μM of peptide 1 (130-152), or 1 μM of peptide 2 (150-172) for 30 min at room temperature. The chemotactic response of differentiated HL-60 cells to 100 pM C5a alone, C5a plus 50 nM full-length natural DBP or 1% zymosan-activated serum (ZAS) was measured for 60 minutes at 37° C. Numbers represent net cell movement in 60 min, mean±SEM of 3 experiments.
(§1) Cells and cell culture: Human promyelocytic cell line HL-60 was obtained from ATCC (Rockville, Md.) and cultured in RPMI 1640 medium supplemented with 10% FBS. Differentiation of HL-60 cells was initiated with 250 μM Bt2cAMP for 48 hours.
Chemotaxis assay. Chemotaxis was performed as described previously (see Kew, R. R. et al., J. Leukoc. Biol. 58, 55-58 (1995)). In brief, 35 μl of C5a (0.01 to 1 nM) in the chemotaxis buffer (HBSS with 1% BSA, 10 mM HEPES) were placed in duplicate in the lower chamber of a 48-well chamber (Neuroprobe, Md.). The lower compartments were covered with a 5 μm pore cellulose nitrate filter and then 50 μl of the cell suspension (2.5×10^5/well) was pipetted into the upper compartments. The chemotactic chamber was incubated for 1 hour at 37° C. in a humidified incubator with 5% CO2. Following incubation, the filter was fixed, stained and mounted on a microscope slide. Cell movement was measured as the distance in microns that the leading front of the cells had migrated into the filter (see Zigmond, S. et al., J. Exp. Med. 137, 387 (1973)).

[7] = test system: differentiated HL-60 cells; assay: Ligand-induced calcium mobilization (Fluo-3 AM) in differentiated HL-60 cells; type: cell-based, Human; settings: differentiated HL-60 cells incubated 30 min with 50 nM of indicated DBP, then C5a
Method: as §1
Ligand-induced calcium mobilization. Calcium mobilization studies were performed using the Fluo-3 AM probe as described previously (see Merritt, J. E. et al., Biochem. J. 269, 513-519 (1990)). Differentiated HL-60 cells (1×10^7 cells/ml) were resuspended in HBSS-1% BSA containing 2 μM Fluo-3 AM (Molecular Probes, Eugene, Oreg.) and incubated at 37° C. for 40 minutes. Cells incubated without the dye were used as a control to measure autofluorescence (Fmin). Following the dye uptake, cells were washed twice then suspended at 5×10^6 cells/ml in HBSS containing 1% BSA. Half of the cell suspension was treated with 50 nM DBP for 30 min at room temperature, the other half served as the untreated control. For each measurement, 400 μl of cell suspension (with or without DBP) was added to a cuvette and stimulated with various concentrations of purified C5a at room temperature (22-24° C.). Fluorescence was then measured immediately using a Perkin-Elmer LS-5 fluorometer at 505 nm excitation, 526 nm emission for Fluo-3 AM. Fmax was measured by treating labeled cells with 60 μM digitonin. Intracellular free calcium concentrations were calculated using the following formula: (Ca^2+)=Kd (F−Fmin)/(Fmax−F), where Kd=325 nM for Fluo-3 according to manufacturer (Molecular Probes).

Compound	enhancement of C5a-mediated chemotaxis (net cell movement) [6]	enhancement of intracellular Ca2+ flux in response to C5a [7]	also measured
peptide 5: DBP residues #135-146, printed as SEQ ID NO: 10; residues match the sequence of SEQ ID NO: 9 (NQFMWEYSTNYG)			block of the DBP-enhanced C5a calcium signal (U937-C5aR cells [1]): partially block
EAFRKDPKEYAN [peptide 3, DBP residues 130-141]			block of the DBP-enhanced C5a calcium signal (U937-C5aR cells [1]): partially block
[O-][Cl+2]([O-])O [chlorate, sodium chlorate]			U937-C5aR chemotaxis to C-activated plasma (U937-C5aR cells [2]; 2.5% C-activated plasma): not; U937-C5aR chemotaxis to C-activated serum (U937-C5aR cells [2]; 2.5% C-activated serum): significantly reduces; U937-C5aR chemotaxis to 1 nM purified C5a (net movement) (U937-C5aR cells [2]; treated cells, DBP-independent): 56+/−4.8 μm/120 min
C=C1/C(=C\C=C2/CCC[C@]3(C)[C@@H]([C@H](C)CCCC(C)(C)O)CC[C@@H]23)C[C@@H](O)C[C@@H]1O [1,25(OH)2D3, 1,25(OH)2 Vitamin D3]			neutrophil chemotaxis to optimal concentrations of C5a, formyl peptide, LTB4 or CXCL8 (IL-8) (neutrophils [3]; 10 nM bound to DBP): does not alter neutrophil chemotaxis; effect on co-chemotactic activity of DBP (neutrophil chemotaxis toward C5a) (neutrophils [3]; ligand bound to DBP, 1,25(OH)2D3 100 nM): completely eliminated the co-chemotactic effect; effect on binding of 125I-DBP to neutrophils (neutrophils [4]): did not alter DBP binding to neutrophils; neutrophil AP activity [5]: not significantly altered
(1-175): truncated version of DBP domain I expressed in E. coli (LERGRDYEKNKVCKEFSHLGKEDFTSLSLVLYSRKFPSGT)	almost the same level of activity as full-length natural DBP	almost the same level of activity as full-length natural DBP	
(1-125): truncated version of DBP domain I expressed in E. coli (LERGRDYEKNKVCKEFSHLGKEDFTSLSLVLYSRKFPSGT)	lack enhancing activity	lack enhancing activity	
domain I & II: truncated reDBP, residues 1-378 (LERGRDYEKNKVCKEFSHLGKEDFTSLSLVLYSRKFPSGT)	significantly enhanced	significantly enhanced	
(1-150): truncated version of DBP domain I expressed in E. coli (LERGRDYEKNKVCKEFSHLGKEDFTSLSLVLYSRKFPSGT)	almost the same level of activity as full-length natural DBP	almost the same level of activity as full-length natural DBP	
Vitamin D			effect on binding of 125I-DBP to neutrophils (neutrophils [4]): does not alter its ability to bind to neutrophils
domain I: truncated reDBP, residues 1-191 (EAFRKDPKEYANQFMWEYST)	significantly enhanced	significantly enhanced	
(1-112): truncated version of DBP domain I expressed in E. coli (LERGRDYEKNKVCKEFSHLGKEDFTSLSLVLYSRKFPSGT)	lack enhancing activity	lack enhancing activity	
